From ChEMBL document CHEMBL1151583, “Conformationally-restricted analogs of TXA2 antagonist SQ 33,961: Receptor binding conformation of the carboxyl sidechain” (Bioorg Med Chem Lett, 1991)

Organism: Homo sapiens
Experiment: In vitro ability to inhibit arachidonic acid induced platelet aggregation (AAIPA)
Type: functional
Settings: read-out: I50

| IC50 [µM] | SMILES |
| --- | --- |
| 0.008 | O=C(O)CCc1ccccc1/C=C1\C2CCC(O2)C1c1nc(C(=O)NCCCCC2CCCCC2)co1 (configuration not stated) |
| 12.7 | O=C(O)CCc1ccccc1/C=C1/C2CCC(O2)C1c1nc(C(=O)NCCCCC2CCCCC2)co1 (configuration not stated) |
